Results: patent US20110251188A1, “ACENAPHTHO HETEROCYCLE COMPOUNDS, CYCLODEXTRIN INCLUSION COMPOUNDS AND COMPLEXES, AND USES IN THE MANUFACTURES OF BH3 PROTEIN ANALOGUE, BCL-2 FAMILY PROTEIN INHIBITORS THEREOF” (DALIAN UNIVERSITY OF TECHNOLOGY, priority 2008, published 2011)
≈ marks a conversion by molar mass, not a printed value.

Target: T1, GST-Bcl-2 protein (Homo sapiens, UniProt P10415)
T1 construct: fused on or other part: GST tag on Bcl-2
Assay: fluorescence polarization assay, competitive binding against FAM-Bid peptide
Details: Table 3; FAM-Bid competition; table does not say whether Bcl-2 or Mcl-1; read-out: Binding constant
Protocol: A Bid BH3 peptide (amino acids: 79-99: […]) having 21 amino acids was synthesized and marked with 6-carboxyfluorescein N-succinimidyl ester (FAM) as fluorescent tag (FAM-Bid) at the N-terminal. The reaction system used in the competitive binding experiment was GST-Bcl-2 protein (40 nM) or Mcl-1 protein, which was dissolved in the reaction buffer (100 mM K3PO4, pH 7.5; 100 μg/ml bovine γ albumin; 0.02% sodium azide) together with FAM-Bid polypeptide (5 nM). In a 96-well plate, 100 μL of the reaction system was added into each well. Then 1 μL different concentration of 3-thiomorpholinyl-8-oxo-8H-acenaphtho[1,2-b]pyrrole-9-carbonitrile mother solution to be detected dissolved in DMSO was added thereinto until the final concentration met the experimental design requirements. Meanwhile, two control groups were established, one with the reaction system only contains Bcl-2 or Mcl-1 and FAM-Bid (equivalent to 0% inhibition rate), the other with the reaction system only containing FAM-Bid peptide. After 4 hours of incubation, the 96-well plate was detected by enzyme-labelled meter. The fluorescent polarization value (mP) was tested at […]. Ki value was deduced according to calculation formula. The competitive binding constant between the compound and Bcl-2 was 310 nM.

T1 sequence (P10415 whole entry, the tested form may be a part): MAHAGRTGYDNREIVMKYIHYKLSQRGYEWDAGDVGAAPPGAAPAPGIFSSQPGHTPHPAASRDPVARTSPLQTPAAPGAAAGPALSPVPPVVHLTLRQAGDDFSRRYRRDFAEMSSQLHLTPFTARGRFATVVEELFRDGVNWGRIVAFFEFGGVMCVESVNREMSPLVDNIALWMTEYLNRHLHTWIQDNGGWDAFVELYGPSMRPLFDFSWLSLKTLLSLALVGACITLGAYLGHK

Structure (SMILES) | Ki [nM]
N#CC1=C2C(=NC1=O)c1c(Sc3ccc(Br)cc3)ccc3c(Sc4ccc(Br)cc4)ccc2c13 [3,6-di(4-bromophenylthio)-8-oxo-8H-acenaphtho[1,2-b]pyrrole-9-carbonitrile] | 5
N#CC1=C2C(=NC1=O)c1c(Sc3ccc(N)cc3)ccc3cccc2c13 [6-(4-aminophenylthio)-8-oxo-8H-acenaphtho[1,2-b]pyrrole-9-carbonitrile] | 20

Tested on: MCF-7 cells
Assay: cytotoxicity depending on BAX/BAK, MTT, MCF-7 cells with or without BAX/BAK interfering plasmid
Type: cell-based
Details: not given
Protocol: 3 ng of BAX/BAK interfering plasmid was transfected into MCF-7 cells by using calcium phosphate coprecipitation method, 24 hours later, the cells were collected. The expressions after the BAX and BAK proteins interfered with RNA was detected by Western, and the cell groups without plasmid transfection were treated similarly and were set as the control group. The transfected cells were inoculated in a 96-well plate (1×10^5 cells/well), the control experiment of the cell group without plasmid transfection was carried out in parallel. The compound 3-thiomorpholinyl-8-oxo-8 H-acenaphtho[1,2-b]pyrrole-9-carbonitrile to be detected was added thereinto according to the concentration gradient designed before the experiment. 48 hours later, the cellular vitality was detected by MTT. The experimental results were shown in FIG. 6, Gossypol as nonspecific BH3 analogue was treated in parallel.

Structure (SMILES) | dependence of cytotoxicity on BAX/BAK
N#CC1=C2C(=NC1=O)c1c(Sc3ccc(Br)cc3)ccc3c(Sc4ccc(Br)cc4)ccc2c13 [3,6-di(4-bromophenylthio)-8-oxo-8H-acenaphtho[1,2-b]pyrrole-9-carbonitrile] | absolute dependence on BAX/BAK
N#CC1=C2C(=NC1=O)c1c(Sc3ccc(N)cc3)ccc3cccc2c13 [6-(4-aminophenylthio)-8-oxo-8H-acenaphtho[1,2-b]pyrrole-9-carbonitrile] | absolute dependence on BAX/BAK

Tested on: Mcl-1
Assay: Western blotting, inhibition (downregulation) of Mcl-1 in tumor cells, Example 23
Type: cell-based
Details: 6 hours
Protocol: (§1) The interest protein was detected by the corresponding antibody. The expression of the interest protein in the cells was detected by horseradish peroxidase-labeled secondary antibodies in combination with ECL coloration method. […] The concentration of the protein bands in the Western images were carried out semiquantitative analysis and normalization treatment with KODAK Gel Logic 1500 imaging system software.

Structure (SMILES) | downregulation of Mcl-1 protein, semiquantitative analysis (band concentration, control = 1)
N#CC1=C2C(=NC1=O)c1c(Sc3ccc(Br)cc3)ccc3c(Sc4ccc(Br)cc4)ccc2c13 [3,6-di(4-bromophenylthio)-8-oxo-8H-acenaphtho[1,2-b]pyrrole-9-carbonitrile] | 0.99
N#CC1=C2C(=NC1=O)c1c(Sc3ccc(N)cc3)ccc3cccc2c13 [6-(4-aminophenylthio)-8-oxo-8H-acenaphtho[1,2-b]pyrrole-9-carbonitrile] | 0.99

Same assay, conditions: 12 hours

Structure (SMILES) | downregulation of Mcl-1 protein, semiquantitative analysis (band concentration, control = 1)
N#CC1=C2C(=NC1=O)c1c(Sc3ccc(Br)cc3)ccc3c(Sc4ccc(Br)cc4)ccc2c13 [3,6-di(4-bromophenylthio)-8-oxo-8H-acenaphtho[1,2-b]pyrrole-9-carbonitrile] | 0.99
N#CC1=C2C(=NC1=O)c1c(Sc3ccc(N)cc3)ccc3cccc2c13 [6-(4-aminophenylthio)-8-oxo-8H-acenaphtho[1,2-b]pyrrole-9-carbonitrile] | 0.99

Same assay, conditions: 18 hours

Structure (SMILES) | downregulation of Mcl-1 protein, semiquantitative analysis (band concentration, control = 1)
N#CC1=C2C(=NC1=O)c1c(Sc3ccc(Br)cc3)ccc3c(Sc4ccc(Br)cc4)ccc2c13 [3,6-di(4-bromophenylthio)-8-oxo-8H-acenaphtho[1,2-b]pyrrole-9-carbonitrile] | 0.70
N#CC1=C2C(=NC1=O)c1c(Sc3ccc(N)cc3)ccc3cccc2c13 [6-(4-aminophenylthio)-8-oxo-8H-acenaphtho[1,2-b]pyrrole-9-carbonitrile] | 0.55

Same assay, conditions: 24 hours

Structure (SMILES) | downregulation of Mcl-1 protein, semiquantitative analysis (band concentration, control = 1)
N#CC1=C2C(=NC1=O)c1c(Sc3ccc(Br)cc3)ccc3c(Sc4ccc(Br)cc4)ccc2c13 [3,6-di(4-bromophenylthio)-8-oxo-8H-acenaphtho[1,2-b]pyrrole-9-carbonitrile] | 0.57
N#CC1=C2C(=NC1=O)c1c(Sc3ccc(N)cc3)ccc3cccc2c13 [6-(4-aminophenylthio)-8-oxo-8H-acenaphtho[1,2-b]pyrrole-9-carbonitrile] | 0.27

Same assay, conditions: Western blotting, tumor cells

Structure (SMILES) | inhibition against Mcl-1
N#CC1=C2C(=NC1=O)c1c(Sc3ccc(Br)cc3)ccc3c(Sc4ccc(Br)cc4)ccc2c13 [3,6-di(4-bromophenylthio)-8-oxo-8H-acenaphtho[1,2-b]pyrrole-9-carbonitrile] | had the inhibition against Bcl-2 and Mcl-1 proteins
N#CC1=C2C(=NC1=O)c1c(Sc3ccc(N)cc3)ccc3cccc2c13 [6-(4-aminophenylthio)-8-oxo-8H-acenaphtho[1,2-b]pyrrole-9-carbonitrile] | had the inhibition against Bcl-2 and Mcl-1 proteins

Tested on: Bcl-2
Assay: Western blotting, inhibition (downregulation) of Bcl-2 in tumor cells, Example 23
Type: cell-based
Details: 2 hours
Protocol: as §1

Structure (SMILES) | downregulation of Bcl-2 protein, semiquantitative analysis (band concentration, control = 1)
N#CC1=C2C(=NC1=O)c1c(Sc3ccc(Br)cc3)ccc3c(Sc4ccc(Br)cc4)ccc2c13 [3,6-di(4-bromophenylthio)-8-oxo-8H-acenaphtho[1,2-b]pyrrole-9-carbonitrile] | 0.68
N#CC1=C2C(=NC1=O)c1c(Sc3ccc(N)cc3)ccc3cccc2c13 [6-(4-aminophenylthio)-8-oxo-8H-acenaphtho[1,2-b]pyrrole-9-carbonitrile] | 0.79

Same assay, conditions: 6 hours

Structure (SMILES) | downregulation of Bcl-2 protein, semiquantitative analysis (band concentration, control = 1)
N#CC1=C2C(=NC1=O)c1c(Sc3ccc(Br)cc3)ccc3c(Sc4ccc(Br)cc4)ccc2c13 [3,6-di(4-bromophenylthio)-8-oxo-8H-acenaphtho[1,2-b]pyrrole-9-carbonitrile] | 0.49
N#CC1=C2C(=NC1=O)c1c(Sc3ccc(N)cc3)ccc3cccc2c13 [6-(4-aminophenylthio)-8-oxo-8H-acenaphtho[1,2-b]pyrrole-9-carbonitrile] | 0.49

Same assay, conditions: Western blotting, tumor cells

Structure (SMILES) | inhibition against Bcl-2
N#CC1=C2C(=NC1=O)c1c(Sc3ccc(Br)cc3)ccc3c(Sc4ccc(Br)cc4)ccc2c13 [3,6-di(4-bromophenylthio)-8-oxo-8H-acenaphtho[1,2-b]pyrrole-9-carbonitrile] | had the inhibition against Bcl-2 and Mcl-1 proteins
N#CC1=C2C(=NC1=O)c1c(Sc3ccc(N)cc3)ccc3cccc2c13 [6-(4-aminophenylthio)-8-oxo-8H-acenaphtho[1,2-b]pyrrole-9-carbonitrile] | had the inhibition against Bcl-2 and Mcl-1 proteins

Tested on: Bcl-2
Assay: Western blotting, compounds compared with cyclodextrin inclusion compounds and complexes, Example 24
Type: cell-based
Details: Table 9; 10 μM or equivalent of inclusion compound, 24 hours
Protocol: (§2) The cells were inoculated in a 6-well plate (2×10^5 cells/well). In the compound group, the compound 3-thiomorpholinyl-8-oxo-8H-acenaphtho[1,2-b]pyrrole-9-carbonitrile was dissolved into DMSO until the final concentration reached 10 μM. In the inclusion group, γ-cyclodextrin inclusion, which had been dissolved into water and was equivalent to 10 μM of the compound, was added thereinto. 24 hours later, the cells were washed with PBS for three times, then the cell sample was collected and cracked with 1×10^6/50 μl cell lysis solution (62.5 mM Tris-HCL pH 6.8; 2% SDS; 10% glycerol; 50 mM DTT; 0.01% bromphenol blue) at low temperature, then the solution was centrifuged and the protein supernatant was collected. The sample was boiled at 100° C. for 5 minutes and then was separated by electrophoresis on 12% SDS-PAGE and transferred. The interest protein was detected by the corresponding antibody. The expression of the interest protein in the cells was detected by horseradish peroxidase-labeled secondary antibodies in combination with ECL coloration method. […] The concentration of the protein bands in the Western figures were carried out semiquantitative analysis and normalization treatment with KODAK Gel Logic 1500 imaging system software.

Structure (SMILES) | downregulation of Bcl-2 protein, semiquantitative analysis (band concentration, control = 1)
N#CC1=C2C(=NC1=O)c1c(Sc3ccc(Br)cc3)ccc3c(Sc4ccc(Br)cc4)ccc2c13 [3,6-di(4-bromophenylthio)-8-oxo-8H-acenaphtho[1,2-b]pyrrole-9-carbonitrile] | 0.69
N#CC1=C2C(=NC1=O)c1c(Sc3ccc(N)cc3)ccc3cccc2c13 [6-(4-aminophenylthio)-8-oxo-8H-acenaphtho[1,2-b]pyrrole-9-carbonitrile] | 0.74

Tested on: Mcl-1
Assay: as above
Type: cell-based
Details: Table 8; 10 μM or equivalent of inclusion compound, 24 hours
Protocol: as §2

Structure (SMILES) | downregulation of Mcl-1 protein, semiquantitative analysis (band concentration, control = 1)
N#CC1=C2C(=NC1=O)c1c(Sc3ccc(Br)cc3)ccc3c(Sc4ccc(Br)cc4)ccc2c13 [3,6-di(4-bromophenylthio)-8-oxo-8H-acenaphtho[1,2-b]pyrrole-9-carbonitrile] | 0.69
N#CC1=C2C(=NC1=O)c1c(Sc3ccc(N)cc3)ccc3cccc2c13 [6-(4-aminophenylthio)-8-oxo-8H-acenaphtho[1,2-b]pyrrole-9-carbonitrile] | 0.70

Tested on: hepatoma carcinoma cells H22
Assay: in vivo tumor model, subcutaneous H22 tumor in Kunming mice
Details: experimental group 2: peritoneal injection of DMSO solution, 0.3 mg/kg BW every other day, 10 days; tumor volume on the fortieth day
Protocol: The Kunming mice (in China) were randomly divided into groups, with 10 mice in each group. The cultivated hepatoma carcinoma cells H22 were inoculated subcutaneously in the oxter of the mice with 200 μL/mouse. After bearing the cancer cells for five days, the subcutaneous tumor was formed. Then the compound 3-thiomorpholinyl-8-oxo-8H-acenaphtho[1,2-b]pyrrole-9-carbonitrile and γ-cyclodextrin inclusion compound thereof were given by peritoneal injection, and the compound to be detected included by γ-cyclodextrin was given by oral administration. The detection conditions comprise:
Blank control group: the mice were not treated in any manner after the bearing cancer;
Control group (1): the mice were given a peritoneal injection of DMSO solution every other day after the bearing cancer, 10 days in total;
Control group (2): the mice were given a peritoneal injection of cyclodextrin solution every other day after the bearing cancer, 10 days in total;
Experimental group (1): the mice were given a peritoneal injection of DMSO solution equivalent to 0.03 mg/kg BW compound every other day after the bearing cancer, 10 days in total;
Experimental group (2): the mice were given a peritoneal injection of DMSO solution equivalent to 0.3 mg/kg BW compound every other day after the bearing cancer, 10 days in total;
Experimental group (3): the mice were given a peritoneal injection of inclusion compound water solution equivalent to 0.3 mg/kg BW compound every other day after the bearing cancer, 10 days in total;
Experimental group (4): the mice were given an intragastric administration of inclusion compounds water solution equivalent to 0.3 mg/kg BW compound every other day after the bearing cancer, 10 days in total;
During the experimental period, the length-diameter (a) and short diameter (b), which was perpendicular to the length-diameter, of the tumor were detected twice every week. The gross tumor volume was determined according to the formula: ½ab^2. The survival time of the animal was observed. The tumor inhibition rate was calculated by the tumor volume on the fortieth day.

Structure (SMILES) | tumor inhibition rate
N#CC1=C2C(=NC1=O)c1c(Sc3ccc(Br)cc3)ccc3c(Sc4ccc(Br)cc4)ccc2c13 [3,6-di(4-bromophenylthio)-8-oxo-8H-acenaphtho[1,2-b]pyrrole-9-carbonitrile] | about 78%
N#CC1=C2C(=NC1=O)c1c(Sc3ccc(N)cc3)ccc3cccc2c13 [6-(4-aminophenylthio)-8-oxo-8H-acenaphtho[1,2-b]pyrrole-9-carbonitrile] | about 30%

Tested on: not listed separately
Assay: phase solubility experiment (solubility in water before and after cyclodextrin inclusion or complexation)
Details: thermodynamic from solid, Solubility of compounds, Table 1, compound per se, before inclusion

Structure (SMILES) | solubility [µM]
N#CC1=C2C(=NC1=O)c1c(Sc3ccc(Br)cc3)ccc3c(Sc4ccc(Br)cc4)ccc2c13 [3,6-di(4-bromophenylthio)-8-oxo-8H-acenaphtho[1,2-b]pyrrole-9-carbonitrile] | 0.16 (≈ 0.0967 µg/mL)
N#CC1=C2C(=NC1=O)c1c(Sc3ccc(N)cc3)ccc3cccc2c13 [6-(4-aminophenylthio)-8-oxo-8H-acenaphtho[1,2-b]pyrrole-9-carbonitrile] | 0.28 (≈ 0.099 µg/mL)
